In patent US20260294839A1, “COMPOSITION AND METHOD OF MAKING” (priority 2023, published 2026):
Where two headings read alike, the source gives them in different places.

Columns and labels:
Staphylococcus aureus = assay: Non-peroxide activity (NPA) plate assay with catalase; assay type: cell-based; conditions: duplicate or triplicate mean; invention sample 1 fresh, 2-5 stored 234 days (37° C., room temperature, fridge, freezer)
Description: In this test, the enzyme catalase was added to the sample to rapidly break down hydrogen peroxide to water and oxygen. […] The test was carried out using a Gram-positive bacteria, Staphylococcus aureus. The result is a value in % w/v relative to phenol standards. Two honey samples and several control samples consisting of glycerol with additional components were tested alongside the composition of the invention samples and the results are shown in Table 4. Samples were run in duplicate or triplicate and the mean result calculated.
[…] of the composition of the invention were tested: • Sample 1: a freshly made sample • Sample 2: stored for 234 days in a 37° C. incubator • Sample 3: stored for 234 days at room temperature • Sample 4: stored for 234 days in a fridge • Sample 5: stored for 234 days in a freezer
The NPA assay was used, as previously in Example 3.

[1] = test system: consortium of S. aureus, E. coli and P. aeruginosa; assay: ISO 11930 preservative effectiveness, bacterial consortium; assay type: cell-based; conditions: for log reduction at 50 % v/v: 50.0% v/v aqueous; for log reduction at 5 % / log reduction at 15 % / log reduction at 50 % / Nx: diluted in aqueous solution; for log reduction at 5 % / log reduction at 15 % / log reduction at 50 %: read-out: Rx (log reduction)
Description: (§1) The ISO 11930 industry standard test was to used measure the effectiveness of the compound to act as a preservative (growth inhibition) for up to 28 days (as tested). Preservative action is used to prevent spoilage and contamination of food, cosmetics, and drugs. First, compositions of the invention were diluted in Glycerol (Tables 7 to 8).
(§2) Next, compositions of the invention were diluted in aqueous solution.
According to ISO 11930, compositions of the invention produced a log reduction of >4.14 logs at a concentration of 50.0% v/v, 15.0% v/v, and 5.0% v/v as tested after 7 days, 14 days and 28 days at 25° C. against a consortium of Staphylococcus aureus ATCC 6538, Escherichia coli NCTC 10536 and Pseudomonas aeruginosa ATCC 15442 (Table 9). […]

[2] = test system: consortium of C. albicans and A. brasiliensis; assay: ISO 11930 preservative effectiveness, fungal consortium; assay type: cell-based; conditions: for log reduction at 5 % / log reduction at 15 % / log reduction at 50 % / Nx: diluted in aqueous solution; for log reduction at 5 % / log reduction at 15 % / log reduction at 50 %: read-out: Rx (log reduction)
Description: as §1, §2
Also according to ISO 11930, compositions of the invention produced a log reduction of >3.27 logs at a concentration of 50.0% v/v, 15.0% v/v, and 5.0% v/v as tested after 7 days, 14 days and 28 days at 25° C. against a consortium of Candida albicans ATCC 10231 and Aspergillus brasiliensis ATCC 16404 (Table 10). […]

[3] = if it accumulates excessively at the wound site; cited from earlier work
[4] = ISO 11930, aqueous solution, 25° C.

## OCC(O)CO [Glycerol, glycerol]
Staphylococcus aureus
  NPA, Mean Result: <9.5 % w/v phenol equivalent
[1]
  level at which it is a preservative, bacteria: > 50.0 % V/V
[1]; 14 days and 28 days, 25° C.
  log reduction at 50 % v/v: > 4.21
[1]; 168 h, 7 days, 25° C.
  log reduction at 50 % v/v: 3.67
[1]; 168 h, 5% (V/V), day 7
  log reduction at 5 %: < 2.84
[1]; 168 h, 15% (V/V), day 7
  log reduction at 15 %: < 2.84
[1]; 168 h, 50% (V/V), day 7
  log reduction at 50 %: 3.67
[1]; 336 h, 5% (V/V), day 14
  log reduction at 5 %: < 2.84
[1]; 336 h, 15% (V/V), day 14
  log reduction at 15 %: 3.28
[1]; 336 h, 50% (V/V), day 14
  log reduction at 50 %: > 4.21
[1]; 672 h, 5% (V/V), day 28
  log reduction at 5 %: < 2.84
[1]; 672 h, 15% (V/V), day 28
  log reduction at 15 %: > 4.21
[1]; 672 h, 50% (V/V), day 28
  log reduction at 50 %: > 4.21
[1]; [4]
  Preservation Criteria A for bacteria: conforms to Preservation Criteria A for bacteria
[1]; 5% (V/V), day 0
  Nx: >3.30E+03
[1]; 5% (V/V), day 7
  Nx: >3.30E+03
[1]; 5% (V/V), day 14
  Nx: >3.30E+03
[1]; 5% (V/V), day 28
  Nx: >3.30E+03
[1]; 15% (V/V), day 0
  Nx: >3.30E+03
[1]; 15% (V/V), day 7
  Nx: >3.30E+03
[1]; 15% (V/V), day 14
  Nx: 1.20E+03
[1]; 15% (V/V), day 28
  Nx: <1.40E+02
[1]; 50% (V/V), day 0
  Nx: >3.30E+03
[1]; 50% (V/V), day 7
  Nx: 4.95E+02
[1]; 50% (V/V), day 14
  Nx: <1.40E+02
[1]; 50% (V/V), day 28
  Nx: <1.40E+02
[2]; 50.0%, 15.0%, 5.0% v/v, 7, 14 and 28 days, 25° C.
  log reduction: did not produce a measurable log reduction
[2]; 168 h, 5% (V/V), day 7
  log reduction at 5 %: < 1.65
[2]; 168 h, 15% (V/V), day 7
  log reduction at 15 %: < 1.65
[2]; 168 h, 50% (V/V), day 7
  log reduction at 50 %: < 1.65
[2]; 336 h, 5% (V/V), day 14
  log reduction at 5 %: < 1.65
[2]; 336 h, 15% (V/V), day 14
  log reduction at 15 %: < 1.65
[2]; 336 h, 50% (V/V), day 14
  log reduction at 50 %: < 1.65
[2]; 672 h, 5% (V/V), day 28
  log reduction at 5 %: < 1.65
[2]; 672 h, 15% (V/V), day 28
  log reduction at 15 %: < 1.65
[2]; 672 h, 50% (V/V), day 28
  log reduction at 50 %: < 1.65
[2]; [4]
  Preservation Criteria A for fungi: does not conform to Preservation Criteria A for fungi
[2]; 5% (V/V), day 0
  Nx: >3.30E+03
[2]; 5% (V/V), day 7
  Nx: >3.30E+03
[2]; 5% (V/V), day 14
  Nx: >3.30E+03
[2]; 5% (V/V), day 28
  Nx: >3.30E+03
[2]; 15% (V/V), day 0
  Nx: >3.30E+03
[2]; 15% (V/V), day 7
  Nx: >3.30E+03
[2]; 15% (V/V), day 14
  Nx: >3.30E+03
[2]; 15% (V/V), day 28
  Nx: >3.30E+03
[2]; 50% (V/V), day 0
  Nx: >3.30E+03
[2]; 50% (V/V), day 7
  Nx: >3.30E+03
[2]; 50% (V/V), day 14
  Nx: >3.30E+03
[2]; 50% (V/V), day 28
  Nx: >3.30E+03
[2]; not tested, shows a fail at 50.0%
  level at which it is a preservative, fungi: > 60.0%

## [Ag] [Silver, silver]
[3]
  effect on wound healing: inhibit healing
